This is an account of results in patent publication EP1857440A1, “Novel compounds, isomer thereof, or pharmaceutically acceptable salts thereof as vanilloid receptor antagonist; and pharmaceutical compositions containing the same” (Amorepacific Corporation, priority 2006, dated 2007).

For experiment [1], the target named is T1, vanilloid receptor (Rattus norvegicus, UniProt O35433).
T1 construct: DRG nerve cells from the primary culture of 2 days were equilibrated by washing 4 times; endogenous in cells; host or cells: primary culture of dorsal root ganglion (DRG) neurons from neonatal SD rats
In words: 45Ca influx test (calcium uptake) in primary cultured neonatal rat DRG neurons, capsaicin-stimulated. The experiment is classed as cell-based, SD rats. The settings on record: capsaicin 0.5 µM, 45Ca 10 µCi/ml, 10 mins at room temperature, read-out: Antagonist Calcium Uptake Test (IC50). The procedure:
1) Separation of spinal dorsal root ganglia (DRG) in newborn rats and primary culture thereof
Neonatal (2-3 day old or younger than 2-3 day old) SD rats were put in ice for 5 minutes to anesthetize and disinfected with 70% ethanol. DRG of all part of spinal cord were dissected (Wood et al., 1988, J. Neurosci. 8, pp3208-3220) and collected in DME/F12 medium to which 1.2g/l sodium bicarbonate, 50mg/l gentamycin were added. The DRG were incubated sequentially at 37°C for 30 min in 200 U/ml collagenase and 2.5mg/ml trypsin, separately. The gangiia were washed twice with DME/F12 medium supplemented with 10% horse serum, triturated through a fire-polished Pasteur pipette, filtered through Nitex 80 membrane to obtain single cell suspension and the suspension was washed once more. This was subjected to centrifugation, then resuspended in cell culture medium at certain level of cell density. As the cell culture medium, DME/F12 medium supplemented with 10% horse serum was diluted with identical medium conditioned by C6 glioma cells 2 days on a confluent monolayer (1:1), and NGF (Nerve Growth Factor) was added to adjust 200ng/ml as final concentration. After the cells were grown 2 days in medium where cytosine arabinoside (Ara-C, 100 µM) was added to kill dividing nonneuronal cells, medium was changed to one without Ara-C. The resuspended cells were plated at a density of 1500-2000 neurons/well onto Terasaki plates previously coated with 10 µg/ml poly-D-ornithine.
2) ^45 Ca influx experiments
DRG nerve cells from the primary culture of 2 days were equilibrated by washing 4 times with HEPES (10mM, pH 7.4)-buffered Ca ^2+, Mg^2+-free HBSS (H-HBSS). The solution in each well was removed from the individual well. Medium containing the test compound plus capsaicin (final concentration 0.5 µM) and ^45Ca (final concentration 10 µCi/ml) in H-HBSS was added to each well and incubated at room temperature for 10 mins. Terasaki plates were washed five times with H-HBSS and dried at room temperature. To each well, 0.3% SDS (10 µl) was added to elute ^45Ca. After the addition of scintillation cocktail of into each well, the amount of ^45Ca influx into neuron was measured by counting radioactivity. […] [Table 1] Results of Calcium Influx Test

Experiment [2] relates to Male ICR mice. In words: Analgesic activity test: mouse writhing test induced with phenyl-p-quinone. The settings on record: ip, 0.5 h, Dose 1 mg/kg intraperitoneally, 30 min before phenyl-p-quinone, read-out: Analgesic effect (%Inhibition). The experiment is classed as in vivo. As for the experimental part: 2. Analgesic activity test: Mouse writhing test by inducing with phenyl-p-quinone
Male ICR mice (mean body weight 25g) were maintained in a controlled lighting environment (12 h on/ 12 h off) for experiment. Animals received an intraperitoneal injection of 0.3ml of the chemical irritant phenyl-p-quinone (dissolved in saline containing 5% ethanol to be a dose of 4.5mg/kg) and 6 mins later, the number of abdominal constrictions was counted in the subsequent 6 mins period. Animals (10 animals/group) received 0.2ml of test compounds solution in vehicle of ethanol/Tween 80/saline (10/10/80) intraperitoneally 30 min before the injection of phenyl-p-quinone. A reduction in the number of writhes responding to the test drug compound relative to the number responding in saline control group was considered to be indicative of an analgesic effect. Analgesic effect was calculated by % inhibition equation (% inhibition=(C-T)/C x 100), wherein C and T represent the number of writhes in control and compound-treated group, respectively (Table 2).
(In general: Writhing tests count abdominal constrictions after an irritant is injected.)

The structures appear in SMILES notation. pIC50: −log10 of the molar value.

What is called pIC50 is the negative decadic logarithm of the IC50, by convention in mol/L.

T1 sequence (O35433 whole entry): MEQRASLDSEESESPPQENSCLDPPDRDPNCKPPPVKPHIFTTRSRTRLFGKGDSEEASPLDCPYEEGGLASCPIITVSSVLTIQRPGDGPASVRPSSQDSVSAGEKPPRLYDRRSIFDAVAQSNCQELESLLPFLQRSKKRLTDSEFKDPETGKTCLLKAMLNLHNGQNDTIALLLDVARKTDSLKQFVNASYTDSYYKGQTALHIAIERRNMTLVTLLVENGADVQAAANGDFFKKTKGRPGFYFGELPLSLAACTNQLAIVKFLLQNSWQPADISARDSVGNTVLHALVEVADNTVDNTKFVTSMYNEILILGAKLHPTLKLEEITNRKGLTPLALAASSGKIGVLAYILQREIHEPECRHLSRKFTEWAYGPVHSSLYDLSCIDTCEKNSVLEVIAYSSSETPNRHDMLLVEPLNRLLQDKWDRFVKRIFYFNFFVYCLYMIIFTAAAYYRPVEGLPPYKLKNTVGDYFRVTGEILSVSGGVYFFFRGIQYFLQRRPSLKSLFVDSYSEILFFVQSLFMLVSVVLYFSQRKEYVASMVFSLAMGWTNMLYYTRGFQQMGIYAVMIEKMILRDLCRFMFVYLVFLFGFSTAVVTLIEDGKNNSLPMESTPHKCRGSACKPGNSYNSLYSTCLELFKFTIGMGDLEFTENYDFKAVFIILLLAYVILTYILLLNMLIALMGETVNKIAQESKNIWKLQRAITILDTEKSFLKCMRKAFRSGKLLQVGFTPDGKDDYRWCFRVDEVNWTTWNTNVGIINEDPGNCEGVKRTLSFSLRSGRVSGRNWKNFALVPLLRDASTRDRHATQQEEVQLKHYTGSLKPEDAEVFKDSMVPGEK

Regarding `CCC(C)c1ccc(OCC(=O)NCc2ccc(NS(C)(=O)=O)c(F)c2)cc1` (centres unmarked) [Example 53, N-(3-Fluoro-4-methanesulfonylaminobenzyl)-2-(4-sec-butylphenoxy)acetamide], the pIC50 in experiment [1] is 7.13. The inhibition in vivo at 1 mg/kg in experiment [2] amounted to 49%.
